Data on two compounds can be found in patent US20230303478A1, “PROCESS FOR PREPARING CARBOXYLIC ACID ESTERS OF HYDROXYBUTANOATES” (IOI Oleo GmbH, priority 2020, published 2023).

Series [1] in a line: Cleavage (in-vitro digestion) experiments in FaSSGF medium, which simulates the stomach. Conditions: cleavage experiments in FaSSGF or FaSSIF medium; stepwise release, retardation effect. In kind it is in vitro ADME. An excerpt: By means of cleavage experiments it is shown that carboxylic acid esters of 3-hydroxybutanoate produced according to the invention or mixtures thereof (cf. previously described experiments according to I., II. and III.), including reaction by-products such as dimers, etc., can be cleaved in the human gastrointestinal tract.
In each case, purified reaction products obtained by the inventive method are used as starting mixtures (i.e. tartaric acid ester of 3-hydroxybutanoate, lactic acid ester of 3-hydroxybutanoate, succinic acid ester of 3-hydroxybutanoate, citric acid ester of 3-hydroxybutanoate, maleic acid ester of 3-hydroxybutanoate, fumaric acid ester of 3-hydroxybutanoate, malic acid ester of 3-hydroxybutanoate and adipic acid ester of 3-hydroxybutanoate).
For the cleavage experiments under near-body conditions two media are investigated: • FaSSGF, which simulates the stomach • FaSSIF, which simulates the intestinal tract
Both media are from the company Biorelevant®, Ltd. in Great Britain. In addition, in some experiments porcine pancreas is added (Panzytrat® 40,000, Fa. Allergan).
Under FaSSIF conditions, a lower conversion using Panzytrat® takes place.
Accordingly, the cleavage experiments of dicarboxylic acid esters of 3-hydroxybutanoates also proceed in a cascade. Thus, a retardation effect is present overall.

For series [2] the following is noted: even if several grams are taken; patients; cited from earlier work.

As to `CCOC(=O)CC(C)OC(=O)CC(O)(CC(=O)OC(C)CC(=O)OCC)C(=O)OC(C)CC(=O)OCC` (centres unmarked) [1,2,3-tris-(4-ethoxy-4-oxobutan-2yl)-2-hydroxypropane-1,2,3-tricarboxylate], the “course of the cleavage of 3-hydroxybutanoate” value in series [1] is recorded as “proceeds in a cascade”.

For the compound `CC(O)CC(=O)O` (centres unmarked) [3-hydroxybutyric acid], in series [2], the duration of ketosis result was “about three to four”.
